What was measured:
[1] = tested on: CD8-MerTK in Ba/F3-CDM cells; experiment: In cell MER kinase assay, Ba/F3-CDM cell proliferation without IL-3 (Celltiter-Glo); type: cell-based, murine; settings: 48 hours compound treatment, read-out: Cell growth inhibition (GI50)
Description: To establish an in cell kinase assay for MerTK kinase, the IL-3 dependent Ba/F3 cells of murine lymphoid origin was transfected with CD8-MerTK. […] For a routine cellular assay, Ba/F3-CDM cells were seeded at 2,000 cells per well in 384-well cell culture plate containing DMEM/10% FBS culture media and incubated for 24 hours before addition of compounds pre-diluted in culture media. Following compound treatment, cells were further incubated for 48 hours and the proliferation was measured. To discriminate a Ba/F3 growth inhibition by a specific inhibition of MerTK kinase following compound treatment vs growth inhibition due to a non-specific unintended cytotoxicity of compounds, we routinely carried out control sets of Ba/F3 cells in parallel that grown in IL3-supplemented growth media. In the presence of IL-3, the proliferation of Ba/F3 is no longer dependent on the MerTK activity. Cell growth and proliferation was measured with Celltiter-Glo™ system (Promega, USA) according to the manufacturer's instruction. The half-maximal growth inhibitory concentration (GI50) value was calculated with Prism6.0 software (GraphPad, USA).

[2] = target: human c-MER catalytic domain (Homo sapiens (Human), UniProt Q12866); experiment: LanthaScreen TR-FRET kinase assay, c-MER; settings: read-out: Mer TK inhibition (IC50); Biochemical IC50, TR-FRET, 10 uM ATP
Chain of human c-MER catalytic domain (Q12866 587-858): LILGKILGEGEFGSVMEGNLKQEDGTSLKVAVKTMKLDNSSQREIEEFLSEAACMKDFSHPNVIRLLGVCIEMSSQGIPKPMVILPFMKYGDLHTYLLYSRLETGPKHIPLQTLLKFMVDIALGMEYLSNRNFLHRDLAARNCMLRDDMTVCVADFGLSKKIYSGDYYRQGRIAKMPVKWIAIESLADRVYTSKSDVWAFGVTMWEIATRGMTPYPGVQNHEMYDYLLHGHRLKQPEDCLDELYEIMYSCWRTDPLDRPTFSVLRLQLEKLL

Row | SMILES | GI50 [1] | IC50 [2]
1 | CC(c1ccc(-c2ccc(CO[C@H]3CCC[C@@H]3NC(=O)c3cc(-c4cnn(C)c4)cnc3N)cc2)cc1)N1CCN(C)CC1 (stereo partly drawn) [Example 208, 2-amino-5-(1-methyl-1H-pyrazol-4-yl)-N-((1S,2S)-2-((4′-(1-(4-methylpiperazin-1-yl)ethyl)-[1,1′-biphenyl]-4-yl)methoxy)cyclopentyl)nicotinamide] | < 100 nM | < 10 nM
2 | CC(c1ccc(-c2ccc(CO[C@H]3CCC[C@@H]3NC(=O)c3cc(-c4cnn(C)c4)cnc3N)cc2)cc1)N1C[C@@H](C)N(C)[C@@H](C)C1 (stereo partly drawn) [Example 209, 2-amino-5-(1-methyl-1H-pyrazol-4-yl)-N-((1S,2S)-2-((4′-(1-((3S,5R)-3,4,5-trimethylpiperazin-1-yl)ethyl)-[1,1′-biphenyl]-4-yl)methoxy)-cyclopentyl)nicotinamide] | < 100 nM | < 10 nM
3 | CC(c1ccc(-c2ccc(CO[C@H]3CCC[C@@H]3NC(=O)c3cc(-c4cnn(C)c4)cnc3N)cc2)cc1)N1C[C@@H](C)N(CCO)[C@@H](C)C1 (some centres unmarked) [Example 211] | < 100 nM | < 10 nM
4 | CC(c1c(F)cc(-c2ccc(CO[C@H]3CCC[C@@H]3NC(=O)c3cc(-c4cnn(C)c4)cnc3N)cc2)cc1F)N1CCN(CCO)CC1 (stereo partly drawn) [Example 212, 2-amino-N-((1S,2S)-2-((3′,5′-difluoro-4′-(1-(4-(2-hydroxyethyl)-piperazin-1-yl)ethyl)-[1,1′-biphenyl]-4-yl)methoxy)cyclopentyl)-5-(1-methyl-1H-pyrazol-4-yl)nicotinamide] | > 1000 nM | < 10 nM
5 | C[C@H](c1ccc(-c2ccc(CO[C@H]3CCC[C@@H]3NC(=O)c3cc(-c4cnn(C)c4)cnc3N)cc2)cc1)N1CCNCC1 [Example 213, 2-amino-5-(1-methyl-1H-pyrazol-4-yl)-N-((1S,2S)-2-((4′-((R)-1-(piperazin-1-yl)ethyl)-[1,1′-biphenyl]-4-yl)methoxy)cyclopentyl)nicotinamide] | 100 to 500 nM | < 10 nM
6 | C[C@H](c1ccc(-c2ccc(CO[C@H]3CCC[C@@H]3NC(=O)c3cc(-c4cnn(C)c4)cnc3N)cc2)cc1)N1CCN(C)CC1 [Example 214, 2-amino-5-(1-methyl-1H-pyrazol-4-yl)-N-((1S,2S)-2-((4′-((R)-1-(4-methylpiperazin-1-yl)ethyl)-[1,1′-biphenyl]-4-yl)methoxy)cyclopentyl)nicotinamide] | < 100 nM | < 10 nM
7 | C[C@@H](c1ccc(-c2ccc(CO[C@H]3CCC[C@@H]3NC(=O)c3cc(-c4cnn(C)c4)cnc3N)cc2)cc1)N1CCN(C)CC1 [Example 215, 2-amino-5-(1-methyl-1H-pyrazol-4-yl)-N-((1S,2S)-2-((4′-((S)-1-(4-methylpiperazin-1-yl)ethyl)-[1,1′-biphenyl]-4-yl)methoxy)cyclopentyl)nicotinamide] | < 100 nM | < 10 nM
8 | Cn1cc(-c2cnc(N)c(C(=O)N[C@H]3CCC[C@@H]3OCc3ccc(-c4ccc(C5(N6CCN(CCO)CC6)CC5)cc4)cc3)c2)cn1 [Example 220, 2-amino-N-((1S,2S)-2-((4′-(1-(4-(2-hydroxyethyl)piperazin-1-yl)cyclopropyl)-[1,1′-biphenyl]-4-yl)methoxy)cyclopentyl)-5-(1-methyl-1H-pyrazol-4-yl)nicotinamide] | < 100 nM | < 10 nM
9 | C[C@@H](c1ccc(-c2ccc(CO[C@H]3CCC[C@@H]3NC(=O)c3cc(-c4ccc(F)nc4)cnc3N)cc2)cc1)N1CCN(C)CC1 [Example 222, 6-amino-6′-fluoro-N-((1S,2S)-2-((4′-((S)-1-(4-methylpiperazin-1-yl)ethyl)-[1,1′-biphenyl]-4-yl)methoxy)cyclopentyl)-[3,3′-bipyridine]-5-carboxamide] | < 100 nM | < 10 nM
10 | CN1CCN(C2(c3ccc(-c4ccc(CO[C@H]5CCC[C@@H]5NC(=O)c5cc(-c6ccc(F)nc6)cnc5N)cc4)cc3)CC2)CC1 [Example 224, 6-amino-6′-fluoro-N-((1S,2S)-2-((4′-(1-(4-methylpiperazin-1-yl)cyclopropyl)-[1,1′-biphenyl]-4-yl)methoxy)cyclopentyl)-[3,3′-bipyridine]-5-carboxamide] | 100 to 500 nM | < 10 nM
